Measurements: PMC5007443, “TNIK inhibition abrogates colorectal cancer stemness” (Nature Communications, 2016)

Assays:
[1] = molecular target: T1, JAK3 (Homo sapiens, UniProt P52333); assay: Kinase selectivity profiling, Janus kinase 3; type: biochemical; settings: 0.1 µM inhibitor, ATP at Km; for inhibition at 0.1 µM: read-out: Percentage inhibition of JAK3
T1 sequence (P52333 1-1124): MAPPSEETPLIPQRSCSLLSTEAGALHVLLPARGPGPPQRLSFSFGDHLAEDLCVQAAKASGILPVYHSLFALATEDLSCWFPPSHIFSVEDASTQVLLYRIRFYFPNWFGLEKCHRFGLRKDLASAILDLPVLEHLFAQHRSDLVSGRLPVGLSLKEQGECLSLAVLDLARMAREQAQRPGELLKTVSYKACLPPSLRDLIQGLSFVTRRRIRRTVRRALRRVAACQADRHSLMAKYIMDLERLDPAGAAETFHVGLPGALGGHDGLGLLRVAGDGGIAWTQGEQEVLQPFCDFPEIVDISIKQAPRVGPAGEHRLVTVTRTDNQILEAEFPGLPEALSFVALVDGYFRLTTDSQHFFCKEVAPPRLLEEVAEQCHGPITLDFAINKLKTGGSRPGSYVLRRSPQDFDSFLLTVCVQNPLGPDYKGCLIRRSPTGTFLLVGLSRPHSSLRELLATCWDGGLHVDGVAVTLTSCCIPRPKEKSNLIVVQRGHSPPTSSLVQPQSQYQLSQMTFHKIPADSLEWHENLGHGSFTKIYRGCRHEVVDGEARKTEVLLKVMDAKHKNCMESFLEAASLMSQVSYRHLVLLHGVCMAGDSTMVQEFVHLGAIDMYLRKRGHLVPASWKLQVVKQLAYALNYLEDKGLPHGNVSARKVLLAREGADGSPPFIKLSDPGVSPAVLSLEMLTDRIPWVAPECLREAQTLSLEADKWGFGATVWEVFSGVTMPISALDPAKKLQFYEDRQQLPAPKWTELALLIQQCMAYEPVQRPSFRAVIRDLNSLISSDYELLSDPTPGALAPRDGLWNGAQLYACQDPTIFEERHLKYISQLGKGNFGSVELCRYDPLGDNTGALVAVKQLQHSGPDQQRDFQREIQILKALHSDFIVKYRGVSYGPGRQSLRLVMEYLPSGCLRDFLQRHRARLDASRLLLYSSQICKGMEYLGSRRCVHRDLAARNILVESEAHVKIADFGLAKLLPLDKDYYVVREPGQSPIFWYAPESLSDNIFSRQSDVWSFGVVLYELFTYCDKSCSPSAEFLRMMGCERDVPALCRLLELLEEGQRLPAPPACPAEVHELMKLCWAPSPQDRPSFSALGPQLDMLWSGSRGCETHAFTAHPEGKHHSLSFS
Protocol: (§1) The selectivity of compounds against a panel of 50 human protein kinases was assessed using a non-radiometric assay.

[2] = test system: HCT116 cells; assay: In vivo tumorigenicity of pretreated HCT116 cells in NOD/ShiJic-scid mice; set-up: species or system mouse; settings: HCT116, short-term in vitro treatment
Protocol: (§2) After washing off the compounds, 10,000, 1,000, 100 or 10 viable cells in culture medium containing 50% Matrigel (BD Biosciences) were injected subcutaneously into the flanks of NOD/ShiJic-scid Jcl (6-week-old male) mice. The number of mice that developed tumours was counted, and the frequency of cells with tumour-forming capability was calculated using the ELDA software.

[3] = molecular target: JNK2 (Homo sapiens, UniProt P45984); assay: Kinase selectivity profiling, c-Jun kinase 2; type: biochemical; settings: read-out: Percentage inhibition of JNK2
Sequence of JNK2 (P45984 whole entry): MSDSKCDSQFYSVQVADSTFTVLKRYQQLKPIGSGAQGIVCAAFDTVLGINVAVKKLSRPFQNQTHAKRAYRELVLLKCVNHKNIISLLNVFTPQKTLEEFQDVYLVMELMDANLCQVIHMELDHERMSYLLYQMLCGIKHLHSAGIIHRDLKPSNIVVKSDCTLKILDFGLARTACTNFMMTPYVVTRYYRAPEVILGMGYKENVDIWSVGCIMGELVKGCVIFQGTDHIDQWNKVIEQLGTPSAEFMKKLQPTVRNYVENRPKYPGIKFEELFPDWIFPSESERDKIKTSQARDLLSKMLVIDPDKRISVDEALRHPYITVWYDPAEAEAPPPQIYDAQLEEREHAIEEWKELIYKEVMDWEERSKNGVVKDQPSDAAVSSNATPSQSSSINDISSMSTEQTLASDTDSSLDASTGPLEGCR
Protocol: as §1

[4] = molecular target: DAPK1 (Homo sapiens, UniProt P53355); assay: Kinase selectivity profiling, Death-associated protein kinase 1; type: biochemical; settings: read-out: Percentage inhibition of DAPK1
Protocol: as §1

[5] = test system: DLD-1 cells; assay: Limiting dilution analysis of sphere formation, DLD-1; type: cell-based, human
Protocol: One million HCT116 and DLD-1 cells were seeded onto 60-mm plates and treated with vehicle (DMSO) or compounds (0.1, 0.3 or 1.0 μM) for either 3 or 4 days. After washing off the compounds, the cells were dissociated to single cells in serum-free DMEM/F12 medium (Thermo Fisher Scientific) containing B27 (Thermo Fisher Scientific), 20 ng ml^−1 epidermal growth factor (EGF; Thermo Fisher Scientific), 10 ng ml^−1 basic fibroblast factor (bFGF; Thermo Fisher Scientific), 5 μg ml^−1 insulin (Thermo Fisher Scientific), 0.4% bovine serum albumin (Sigma-Aldrich) and 2 mM L-glutamine (Thermo Fisher Scientific). One hundred, 10 or 1 viable (determined by trypan-blue dye exclusion) cells were seeded into each well of a 96-well U-bottom PrimeSurface plate (Sumitomo Bakelite). Ten days later, the number of wells showing sphere formation was counted. The frequency of sphere-forming cells was calculated using ELDA software (http://bioinf.wehi.edu.au/software/elda/index.html) provided by the Walter and Eliza Hall Institute (Fig. 5c; Supplementary Table 2). Experiments were performed in triplicate and repeated at least two times.

[6] = molecular target: IGF1R (Homo sapiens, UniProt P08069); assay: Kinase selectivity profiling, Insulin-like growth factor 1 receptor; type: biochemical; settings: read-out: Percentage inhibition of IGF1R
Sequence of IGF1R (P08069 31-1367): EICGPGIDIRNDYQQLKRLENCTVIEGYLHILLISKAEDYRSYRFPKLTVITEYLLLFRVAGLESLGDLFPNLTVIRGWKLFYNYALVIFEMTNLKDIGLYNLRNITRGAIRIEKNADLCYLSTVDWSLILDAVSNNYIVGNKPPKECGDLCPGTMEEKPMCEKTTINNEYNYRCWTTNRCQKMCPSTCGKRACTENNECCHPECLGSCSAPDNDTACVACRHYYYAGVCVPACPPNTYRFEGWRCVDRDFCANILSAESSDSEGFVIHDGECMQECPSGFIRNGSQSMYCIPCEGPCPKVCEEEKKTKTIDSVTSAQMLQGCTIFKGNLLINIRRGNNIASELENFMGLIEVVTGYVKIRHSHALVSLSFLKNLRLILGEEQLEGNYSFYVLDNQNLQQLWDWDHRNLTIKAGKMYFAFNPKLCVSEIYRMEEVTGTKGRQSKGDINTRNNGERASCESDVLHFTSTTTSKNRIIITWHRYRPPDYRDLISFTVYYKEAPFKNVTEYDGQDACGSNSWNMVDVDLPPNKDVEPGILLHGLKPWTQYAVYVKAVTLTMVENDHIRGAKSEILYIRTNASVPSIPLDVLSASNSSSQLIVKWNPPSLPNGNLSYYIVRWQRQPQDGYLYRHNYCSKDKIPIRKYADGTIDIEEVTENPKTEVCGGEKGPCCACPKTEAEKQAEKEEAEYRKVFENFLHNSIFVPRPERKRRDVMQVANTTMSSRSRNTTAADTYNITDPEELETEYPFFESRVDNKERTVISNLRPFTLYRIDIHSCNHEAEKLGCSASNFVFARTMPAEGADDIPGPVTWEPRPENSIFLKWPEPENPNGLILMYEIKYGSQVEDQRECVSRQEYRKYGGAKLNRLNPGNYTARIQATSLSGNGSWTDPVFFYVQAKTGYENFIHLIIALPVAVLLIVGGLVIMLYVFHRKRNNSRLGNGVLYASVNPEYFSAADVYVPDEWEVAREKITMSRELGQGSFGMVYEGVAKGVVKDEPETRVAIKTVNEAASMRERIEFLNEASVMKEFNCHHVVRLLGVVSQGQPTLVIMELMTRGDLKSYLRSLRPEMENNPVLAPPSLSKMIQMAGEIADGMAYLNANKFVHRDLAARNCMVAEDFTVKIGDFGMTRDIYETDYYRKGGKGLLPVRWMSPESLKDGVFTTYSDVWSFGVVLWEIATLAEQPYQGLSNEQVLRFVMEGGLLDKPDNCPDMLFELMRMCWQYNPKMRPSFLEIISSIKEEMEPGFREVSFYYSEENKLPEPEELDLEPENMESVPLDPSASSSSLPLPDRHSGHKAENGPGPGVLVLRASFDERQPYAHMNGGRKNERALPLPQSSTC
Protocol: as §1

[7] = test system: DLD-1 cells; assay: In vivo tumorigenicity of pretreated DLD-1 cells in NOD/ShiJic-scid mice; set-up: species or system mouse; settings: DLD-1, short-term in vitro treatment
Protocol: as §2

[8] = molecular target: EGFR (Homo sapiens, UniProt P00533); assay: Kinase selectivity profiling, Epidermal growth factor receptor; type: biochemical; settings: read-out: Percentage inhibition of EGFR
Sequence of EGFR (P00533 25-1210): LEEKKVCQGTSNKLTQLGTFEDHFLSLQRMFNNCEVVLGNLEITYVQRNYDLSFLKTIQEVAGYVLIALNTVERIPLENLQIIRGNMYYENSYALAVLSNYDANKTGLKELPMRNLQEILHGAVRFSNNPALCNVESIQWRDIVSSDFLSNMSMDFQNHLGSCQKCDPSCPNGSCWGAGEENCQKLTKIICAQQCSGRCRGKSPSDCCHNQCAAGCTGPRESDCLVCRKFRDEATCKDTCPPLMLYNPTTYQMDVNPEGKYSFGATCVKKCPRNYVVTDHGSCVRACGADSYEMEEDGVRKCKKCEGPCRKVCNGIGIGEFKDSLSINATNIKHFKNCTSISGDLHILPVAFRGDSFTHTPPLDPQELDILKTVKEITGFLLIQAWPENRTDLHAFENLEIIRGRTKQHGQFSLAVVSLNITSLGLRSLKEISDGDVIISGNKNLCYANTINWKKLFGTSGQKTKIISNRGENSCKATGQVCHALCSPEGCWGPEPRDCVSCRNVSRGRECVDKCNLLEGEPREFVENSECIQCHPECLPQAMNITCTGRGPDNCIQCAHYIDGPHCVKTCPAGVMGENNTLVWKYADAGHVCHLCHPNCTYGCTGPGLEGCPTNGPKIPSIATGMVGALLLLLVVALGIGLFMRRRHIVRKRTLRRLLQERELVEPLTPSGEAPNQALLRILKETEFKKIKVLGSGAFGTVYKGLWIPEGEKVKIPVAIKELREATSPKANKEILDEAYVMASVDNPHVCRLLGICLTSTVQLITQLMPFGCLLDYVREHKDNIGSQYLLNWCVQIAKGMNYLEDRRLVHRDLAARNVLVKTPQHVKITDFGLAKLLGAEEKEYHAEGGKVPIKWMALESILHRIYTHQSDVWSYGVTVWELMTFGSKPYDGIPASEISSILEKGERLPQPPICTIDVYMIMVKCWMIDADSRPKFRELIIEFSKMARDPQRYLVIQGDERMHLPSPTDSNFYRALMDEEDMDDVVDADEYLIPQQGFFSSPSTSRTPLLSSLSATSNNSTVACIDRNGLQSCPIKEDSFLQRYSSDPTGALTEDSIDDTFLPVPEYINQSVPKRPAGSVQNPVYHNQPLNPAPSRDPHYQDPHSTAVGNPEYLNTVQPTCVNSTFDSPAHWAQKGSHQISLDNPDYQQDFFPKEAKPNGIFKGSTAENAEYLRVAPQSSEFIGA
Protocol: as §1

[9] = test system: patient-derived colorectal cancer spheroids #19; assay: ATP production of patient-derived spheroid #19; type: cell-based; settings: Homo sapiens, 72 h; spheroid #19, 3 days
Protocol: Cells were seeded at a density of 3,000 cells per well in 96-well plates. Twenty-four hours after seeding, the cells were exposed to serially diluted compounds (0.003, 0.01, 0.03, 0.1, 0.3, 1, 3 and 10 μM) and incubated for 72 h (Fig. 3a). Patient-derived colorectal cancer spheroids were dissociated into single cells with Accutase (Nacalai Tesque) and seeded at a density of 3,000 cells per well into Ultra-Low attachment multiwall 96-well plates (Corning; Fig. 6d). ATP was measured with a CellTiter-Glo Luminescent Cell Viability Assay kit (Promega). Experiments were performed in triplicate and repeated at least two times.

[10] = molecular target: FGFR1 (Homo sapiens, UniProt P11362); assay: Kinase selectivity profiling, Fibroblast growth factor receptor 1; type: biochemical; settings: read-out: Percentage inhibition of FGFR1
Sequence of FGFR1 (P11362 22-822): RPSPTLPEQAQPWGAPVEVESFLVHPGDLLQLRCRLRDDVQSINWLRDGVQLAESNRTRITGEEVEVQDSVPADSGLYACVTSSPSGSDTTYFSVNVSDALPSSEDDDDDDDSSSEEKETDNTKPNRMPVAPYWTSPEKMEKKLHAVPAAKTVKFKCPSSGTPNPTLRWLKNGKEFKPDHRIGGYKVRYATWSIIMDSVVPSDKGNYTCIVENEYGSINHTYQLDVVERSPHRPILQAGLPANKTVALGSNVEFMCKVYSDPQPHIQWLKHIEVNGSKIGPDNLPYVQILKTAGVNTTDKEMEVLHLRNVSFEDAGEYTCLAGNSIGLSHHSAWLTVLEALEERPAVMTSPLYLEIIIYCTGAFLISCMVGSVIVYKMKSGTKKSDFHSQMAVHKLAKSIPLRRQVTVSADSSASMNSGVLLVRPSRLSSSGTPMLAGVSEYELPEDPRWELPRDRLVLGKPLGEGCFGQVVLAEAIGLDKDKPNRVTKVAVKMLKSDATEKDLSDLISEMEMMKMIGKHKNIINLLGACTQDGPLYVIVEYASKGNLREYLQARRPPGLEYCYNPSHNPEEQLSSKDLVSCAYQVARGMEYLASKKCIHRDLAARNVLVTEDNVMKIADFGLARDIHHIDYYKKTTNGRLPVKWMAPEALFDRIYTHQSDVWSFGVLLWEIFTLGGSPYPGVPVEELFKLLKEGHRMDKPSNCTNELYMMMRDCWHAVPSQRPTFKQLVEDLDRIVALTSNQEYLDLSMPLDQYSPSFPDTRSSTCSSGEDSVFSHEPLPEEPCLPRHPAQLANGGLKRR
Protocol: as §1

[11] = DLD-1, 3-day treatment, 0.1 μM, 1 cell per well
[12] = DLD-1, 3-day treatment, 0.1 μM, 10 cells per well
[13] = DLD-1, 3-day treatment, 0.1 μM, 100 cells per well
[14] = DLD-1, 3-day treatment, 0.3 μM, 1 cell per well
[15] = DLD-1, 3-day treatment, 0.3 μM, 10 cells per well
[16] = DLD-1, 3-day treatment, 0.3 μM, 100 cells per well
[17] = DLD-1, 3-day treatment, 1.0 μM, 1 cell per well
[18] = DLD-1, 3-day treatment, 1.0 μM, 10 cells per well
[19] = DLD-1, 3-day treatment, 1.0 μM, 100 cells per well
[20] = DLD-1, 4-day treatment, 0.1 μM, 1 cell per well
[21] = DLD-1, 4-day treatment, 0.1 μM, 10 cells per well
[22] = DLD-1, 4-day treatment, 0.1 μM, 100 cells per well
[23] = DLD-1, 4-day treatment, 0.3 μM, 1 cell per well
[24] = DLD-1, 4-day treatment, 0.3 μM, 10 cells per well
[25] = DLD-1, 4-day treatment, 0.3 μM, 100 cells per well
[26] = DLD-1, 4-day treatment, 1.0 μM, 1 cell per well
[27] = DLD-1, 4-day treatment, 1.0 μM, 10 cells per well
[28] = DLD-1, 4-day treatment, 1.0 μM, 100 cells per well

SMILES | inhibition at 0.1 µM [1] [%] | tumour formation [2] | inhibition at 0.1 µM [3] [%] | inhibition at 0.1 µM [4] [%] | Sphere-containing wells/total wells [5, 11] | Sphere-containing wells/total wells [5, 12] | Sphere-containing wells/total wells [5, 13] | Sphere-containing wells/total wells [5, 14] | Sphere-containing wells/total wells [5, 15] | Sphere-containing wells/total wells [5, 16] | Sphere-containing wells/total wells [5, 17] | Sphere-containing wells/total wells [5, 18] | Sphere-containing wells/total wells [5, 19] | Sphere-containing wells/total wells [5, 20] | Sphere-containing wells/total wells [5, 21] | Sphere-containing wells/total wells [5, 22] | Sphere-containing wells/total wells [5, 23] | Sphere-containing wells/total wells [5, 24] | Sphere-containing wells/total wells [5, 25] | Sphere-containing wells/total wells [5, 26] | further results
O[C@H]1CC[C@H](Oc2cccc3cnc(Nc4ccc5nc[nH]c5c4)nc23)CC1 [NCB-0970] | 85.4 | not | -3 | 4.7 | 40/96 | 96/96 | 96/96 | 51/96 | 95/96 | 96/96 | 16/96 | 75/96 | 95/96 | 55/96 | 95/96 | 96/96 | 65/96 | 94/96 | 96/96 | 45/96 | Sphere-containing wells/total wells [5, 27]: 95/96; Sphere-containing wells/total wells [5, 28]: 96/96; inhibition at 0.1 µM [6]: 1.2%; tumour formation [7]: not; inhibition at 0.1 µM [8]: -16.8%; IC50 [9]: > 3000 nM; inhibition at 0.1 µM [10]: 14.4%
O[C@H]1CC[C@@H](Oc2cccc3cnc(Nc4ccc5nc[nH]c5c4)nc23)CC1 [NCB-0846, cis-4-(2-(3H-benzo[d]imidazol-5-ylamino)quinazolin-8-yloxy)cyclohexanol] | > 80 | significantly reduced | 0.3 | 3.7 | 55/96 | 95/96 | 96/96 | 23/96 | 86/96 | 96/96 | 3/96 | 25/96 | 77/96 | 39/96 | 92/96 | 96/96 | 46/96 | 90/96 | 95/96 | 7/96 | Percentage inhibition of JAK3 ([1]; 0.1 µM): 96.3%; Sphere-containing wells/total wells [5, 27]: 34/96; Sphere-containing wells/total wells [5, 28]: 96/96; sphere formation activity ([5]; DLD-1, short-term (3–4 days) treatment): significantly abrogated; inhibition at 0.1 µM [6]: 10.7%; tumour formation [7]: significantly reduced; inhibition at 0.1 µM [8]: 4.8%; IC50 [9]: 620 nM; inhibition at 0.1 µM [10]: 32.5%
